For assay [1], the system named is reconstructed human epidermis (RHE). As to the kind of experiment: Protein expression (in situ immunolabeling) in RHE stimulated with cytokines. Format: cell-based. The settings on record: 3 PPM peptide, % of level in non treated RHE. The method, then: In the present study, the effects of a peptide on the expression of 7 proteins were assessed on a reconstructed human epidermis (RHE) model stimulated or not with a mix of cytokines (IL-17+OSM+TNF-α).
More precisely, effects of compounds were evaluated on the protein expression of markers involved in: • tight junctions (Occludin), • […] (Corneosdesmosin) • keratinocyte differentiation (keratin 10, involucrin, calmodulin-like5), • and lipid synthesis (Acyl-CoA synthetase and sulfotransferase 2B).
Reconstructed human epidermis (RHE) of 11 days old were prepared according to a derived method described by Poumay et al. (2004). These RHE were cultivated at 37° C. and 5% of CO2 in a specific maintenance medium.
The RHE were treated with assay medium containing or not (control) the test compounds or the JAK inhibitor I at 10 μM and incubated for 24 hours. After pre-incubation, assay medium and treatments were renewed and epidermises were stimulated with a cytokine mix (OSM+IL-17+TNF-α*) at 3 ng/ml and incubated for additional 48 hours. All experimental conditions were performed in n=3. *Oncostatin M (OSM)+Interleukin 17 (IL-17)+ Tumor necrosis factor alpha (TNF-α)
At the end of incubation, the supernatants were collected and the RHE were washed in phosphate buffered saline solution (PBS) for in situ immunolabeling.
After incubation, the RHE were snap-frozen in liquid isopentane/N2 and stored at −80° C. The transversal sections were carried out using a microtome (5 μm thickness, one slide per RHE, several sections per slide).
The sections were fixed with an acetone/methanol mix and dried. After PBS-milk 5% saturation, the sections were incubated with the specific primary antibody solutions. […] The sections were washed and then observed under epifluorescence microscopy.
After incubation, RHE were rinsed and fixed with formaldehyde solution. Fixed tissues were dehydrated in multiple baths with increasing concentration of ethanol and then embedded in paraffin. The transversal sections were carried out using a microtome (5 μm thickness) and stored at room temperature.
The sections were deparaffinized then the antigenic sites were retrieved. The sections were washed and incubated with hydrogen peroxide. The sections, once washed, were incubated with the primary antibody (anti-Calmodulin-like 5 or anti-SULT2B1). […] After peroxidase-conjugated streptavidine and peroxidase substrate addition, nuclei were counter-stained with a solution of haematoxylin. The sections were washed, mounted in aqueous medium and observed under transmitted-light microscopy.
Sections were observed using a NIKON E400 microscope. Images were captured with a NIKON DS-Ri1 and processed with NIS-Elements 3.10 software (3 pictures per replicate). The image analysis was performed by measuring the fluorescence intensity using Image J software.
Results were expressed in % of the level of expression of each protein maker in non treated RHE.

The test system of assay [2] is opioid receptor delta (DOR). As to the kind of experiment: Scoring of DOR1 expression in RHE stimulated with cytokines. Format: cell-based, human. The conditions noted are these: JAK inhibitor I tested at 10 μM. The method, then:
In the present study, the effects of a peptide (YPLDLF, SEQ ID No 1) on the expression of opioid receptor delta (DOR) were researched on a reconstructed human epidermis (RHE) model under basal or stimulated conditions. More precisely, the RHE were stimulated by a mix of cytokines (IL-17+OSM+TNF-α) able to induce a strong inflammatory profile and a psoriatic phenotype in keratinocytes.
Reconstructed human epidermis (RHE) of 11 days old was prepared according to a derived method described by Poumay et al. (2004). These RHE were cultivated at 37° C. and 5% of CO2 in a specific maintenance medium.
The RHE treated under basal conditions were placed in assay medium containing or not (non-stimulated control) the peptide solutions and incubated for 54 hours. For inflammatory conditions, the RHE were placed in assay medium containing or not (stimulated control) the peptide solutions or the reference […] at 10 μM) and pre-incubated for 6 hours. The RHE were then stimulated with a mix of cytokines (IL-17+OSM+TNF-α at 3 ng/ml) and incubated for 48 hours. All experimental conditions were performed in n=3.
At the end of incubation, the supernatants were collected and the RHE were washed in phosphate buffered saline solution (PBS) for immunohistofluorescence analysis. […]

Another assay has as its system human skin explants. In words: Pro-pigmentation on human skin explants. The conditions noted are these: within 6 days, 0.3 and 3 PPM. Format: cell-based. The method, then: This study aims to explore the pro pigmenting activity of an ingredient (peptide YPLDLF, SEQ ID No 1) on human skin explants maintained in survival.
The activity of the product was evaluated by: • histological expertise of general morphology of the skin after Masson trichrome staining, • a visualization of melanin by a silver impregnation. • Immunostaining of Melan-A
Skin explants with a diameter of 10 mm were prepared from plastic surgery skin sample from a person. The explants were placed in survival in a specific growth medium at 37° C. in a humid atmosphere enriched with 5% CO2.
The peptide solutions (at 0.3 PPM or 3 PPM) were applied topically for 2 hours every day using a filter paper discs presoaked in 30 μl of each solution.
At D0, a T0 lot of the explants were removed and cut in half. One half was fixed in buffered formalin and the other half was frozen at −80° C. […]
The melanin was visualized by silver impregnation according to the technique of Masson Fontana variant. Labeled melanin has been evaluated by microscopic examination.
The expression of melanin in the basal layers, was quantified by image analysis using the software Cell-D.
The cell nuclei were colored with a propidium iodide. Labeled Melan-A has been evaluated by microscopic examination and counting of melanocytes Melan-A positive and the results expressed per centimeter of epidermis.

Ends that are not written are not given here.

Take YPLDLF [YPLDLF]: in assay [1], the “Acyl-CoA synthetase protein expression level in RHE” value was found to be 65%, the “Calmodulin like 5 protein expression level in RHE” value was determined as 100%, the “Corneodesmosin protein expression level in RHE” value is recorded as 84% and the “Involucrin protein expression level in RHE” value is 99%. For the same substance, in assay [1], the “Keratin 10 protein expression level in RHE” value is listed as 104%, the “Occludin protein expression level in RHE” value is 97% and the “Sulfotransferase 2B protein expression level in RHE” value turned out to be 100%. The “inhibitory effect of the cytokine mix on OPRD1 expression” value in assay [2] is given as “reversed”. The “production of pigment (melanin) in human skin” value with human skin explants was “activate in a dose dependent manner”.

These data come from patent US9107852B2, “Uses of agonists of delta opioid receptor in cosmetic and dermocosmetic field” (Induchem Holding AG, priority 2012, dated 2015).
